# The source made the active and inactive calls.
# What was measured:
# [1] = viability of PTEN-deleted HCT116 cells – cell-based, HCT116 PTEN knockout, dose response (AID 1047); assay type: functional;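 note: HCT116 colon tumor cells with PTEN knocked out; cells exposed to compound for 60 hours before readout; potency for loss of cell viability measured by luminescence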
# [2] = viability of HCT116 lacking mutant beta-catenin – cell-based, human colon tumor, dose response (AID 1045); assay type: functional;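 note: HCT116 colon tumor cells with beta catenin knocked out; cells exposed to compound for 60 hours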
# [3] = HEK-293T viability loss after treatment – luminescence, T-cell screen hits, cytotoxicity control for TCR NF-kB inhibitor project, dose response (AID 489026); assay type: functional, cell-based;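 note: cells exposed to compound about 14 hours before the viability readout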
# [4] = target: T1, Heat shock factor protein 1 (Mus musculus, UniProt P38532); assay: enhancement of HSF1-driven luciferase signal – cell-based, NIH3T3, luminescence, dose retest, confirmation (AID 435004); assay type: functional;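 note: stress induced by proteasome inhibitor MG132 added 30 min after compound; luciferase reporter driven by HSF1 response element in NIH3T3 cells; actives raise luminescence as potentiators of the MG132 stress response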
# T1 sequence (P38532 whole entry): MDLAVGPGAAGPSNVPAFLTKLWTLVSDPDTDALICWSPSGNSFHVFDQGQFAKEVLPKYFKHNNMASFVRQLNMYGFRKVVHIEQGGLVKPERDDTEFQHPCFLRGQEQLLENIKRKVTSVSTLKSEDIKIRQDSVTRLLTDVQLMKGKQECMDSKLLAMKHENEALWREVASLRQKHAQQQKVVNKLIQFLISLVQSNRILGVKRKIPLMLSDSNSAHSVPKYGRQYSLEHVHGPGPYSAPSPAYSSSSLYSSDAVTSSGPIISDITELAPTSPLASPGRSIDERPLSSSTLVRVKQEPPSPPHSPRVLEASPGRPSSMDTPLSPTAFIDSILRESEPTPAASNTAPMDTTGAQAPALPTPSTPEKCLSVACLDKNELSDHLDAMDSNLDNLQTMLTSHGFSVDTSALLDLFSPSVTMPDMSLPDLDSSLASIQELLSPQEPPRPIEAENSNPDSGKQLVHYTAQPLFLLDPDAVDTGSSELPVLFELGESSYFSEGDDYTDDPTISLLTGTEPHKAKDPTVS
# [5] = target: Photoreceptor-specific nuclear receptor (Homo sapiens, UniProt Q9Y5X4); assay type: functional, cell-based;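 note: CHO-S cells with Gal4-NCOR and VP16-NR2E3 two-hybrid luciferase reporter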
# [6] = target: SWI/SNF-related matrix-associated actin-dependent regulator of chromatin subfamily A member 2 (Homo sapiens, UniProt P51531); assay: Luminescence-based cell-based high throughput dose response assay to identify activators of the function of SWI/SNF related, matrix associated, actin dependent regulator of chromatin, subfamily a, member 2 (SMARCA2, BRM).; assay type: functional
# [7] = viability loss in HEK293T cells – cell-based, cherry-picks, cytotoxicity control for HIV Vif inhibitor project, dose response (AID 652208); assay type: functional
# [8] = Counterscreen for activators of the function of SWI/SNF related, matrix associated, actin dependent regulator of chromatin, subfamily a, member 2 (SMARCA2, BRM): Luminescence-based cell-based high throughput dose response assay to identify non-selective compounds using the VP16 reporter assay.; assay type: functional
# fMet-Leu-Phe receptor = fMet-Leu-Phe receptor (Homo sapiens, UniProt P21462); assay: formyl peptide receptor binders – dose response (AID 519); assay type: functional
# Kallikrein-7 = Kallikrein-7 (Homo sapiens, UniProt P49862); assay: Fluorescence Intensity-based biochemical primary high throughput dose response assay to identify activators of kallikrein-7 (K7) zymogen.
# [9] = optical artefact potency, substrate without enzyme – biochemical, fluorescence intensity, triplicate, artefact control for kallikrein-7 zymogen activator project, dose response (AID 720493)
# [10] = target: NAD-dependent protein deacylase sirtuin-5, mitochondrial (Homo sapiens, UniProt Q9NXA8); assay: sirtuin-5 deacylation blockers, concentration series – biochemical, fluorescence imaging, cherry-pick, set 5, dose response (AID 720591);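 note: desuccinylation of succinyl peptide AMC substrate read as fluorescence after trypsin release; potency of inhibitors that lower fluorescence and may act on trypsin instead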
# Cytochrome P450 3A4 = Cytochrome P450 3A4 (Homo sapiens, UniProt P08684);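 note: CYP3A4 tested as one member of a cytochrome P450 panel screen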
# [11] = target: T2, Short transient receptor potential channel 4 (Mus musculus, UniProt Q9QUQ5); assay: block of DAMGO-driven TRPC4 calcium entry – cell-based, HEK293 TRPC4/mu-opioid, Fluo-4 calcium, dose response (AID 434942); assay type: functional;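 note: potency of inhibitors blocking the TRPC4 calcium response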
# T2 sequence (Q9QUQ5 whole entry): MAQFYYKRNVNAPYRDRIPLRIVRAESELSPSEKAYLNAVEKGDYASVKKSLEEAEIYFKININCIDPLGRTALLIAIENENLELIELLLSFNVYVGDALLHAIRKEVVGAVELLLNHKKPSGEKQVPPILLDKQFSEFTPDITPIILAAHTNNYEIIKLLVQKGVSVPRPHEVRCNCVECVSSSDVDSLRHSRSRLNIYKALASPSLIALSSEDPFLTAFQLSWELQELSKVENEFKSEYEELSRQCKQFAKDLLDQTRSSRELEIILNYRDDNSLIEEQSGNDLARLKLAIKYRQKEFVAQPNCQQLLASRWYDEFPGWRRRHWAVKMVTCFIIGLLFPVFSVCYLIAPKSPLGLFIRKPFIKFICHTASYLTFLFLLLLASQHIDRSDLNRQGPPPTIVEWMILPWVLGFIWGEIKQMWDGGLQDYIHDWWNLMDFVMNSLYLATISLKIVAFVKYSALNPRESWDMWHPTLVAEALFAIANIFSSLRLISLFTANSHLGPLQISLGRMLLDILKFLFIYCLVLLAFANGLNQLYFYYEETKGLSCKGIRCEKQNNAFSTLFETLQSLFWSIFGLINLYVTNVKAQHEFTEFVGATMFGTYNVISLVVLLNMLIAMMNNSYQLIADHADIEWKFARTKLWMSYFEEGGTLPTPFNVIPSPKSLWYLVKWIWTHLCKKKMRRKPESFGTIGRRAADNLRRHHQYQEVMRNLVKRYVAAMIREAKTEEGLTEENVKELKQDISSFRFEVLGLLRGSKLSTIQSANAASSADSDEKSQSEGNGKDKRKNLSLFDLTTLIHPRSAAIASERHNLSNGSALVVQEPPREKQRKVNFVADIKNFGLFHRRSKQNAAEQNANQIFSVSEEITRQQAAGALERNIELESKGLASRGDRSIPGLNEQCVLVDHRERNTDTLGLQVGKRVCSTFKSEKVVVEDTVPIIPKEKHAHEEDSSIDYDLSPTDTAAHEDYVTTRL
# [12] = target: T2, Short transient receptor potential channel 4; assay: calcium entry via TRPC4 opening agents – cell-based, HEK293 TRPC4/mu-opioid, Fluo-4 calcium, dose response (AID 434937); assay type: functional
# cells [13] = assay type: functional, cell-based
# [14] = target: T3, Trace amine-associated receptor 1 (Homo sapiens, UniProt Q96RJ0); assay: Fluorescence-based cell-based high throughput dose response assay to identify agonists of the human trace amine associated receptor 1 (TAAR1).; assay type: functional
# T3 sequence (Q96RJ0 whole entry): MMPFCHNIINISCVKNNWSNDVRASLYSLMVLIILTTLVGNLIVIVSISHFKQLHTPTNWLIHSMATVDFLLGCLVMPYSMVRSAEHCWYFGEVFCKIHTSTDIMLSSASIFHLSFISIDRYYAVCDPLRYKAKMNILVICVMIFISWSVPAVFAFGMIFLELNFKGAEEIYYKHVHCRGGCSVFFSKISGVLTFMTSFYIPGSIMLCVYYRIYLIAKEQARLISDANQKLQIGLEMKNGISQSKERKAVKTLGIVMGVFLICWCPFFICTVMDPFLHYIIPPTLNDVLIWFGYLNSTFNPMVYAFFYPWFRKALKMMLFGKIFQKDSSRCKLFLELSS
# [15] = target: T3, Trace amine-associated receptor 1; assay: Counterscreen for agonists of the human trace amine associated receptor 1 (hTAAR1): Fluorescence-based cell-based high throughput dose response assay to identify hTAAR1 agonist that also desensitize TAAR1 receptor response.; assay type: functional
# cells [16] = assay type: functional, cell-based; remark: listed apart in the source
# [17] = target: Disintegrin and metalloproteinase domain-containing protein 17 (Homo sapiens, UniProt P78536); assay: exosite inhibitors of ADAM17, dose response, biochemical (AID 743260)
# [18] = inhibition of ADAM10 peptide cleavage – biochemical, FRET peptide substrate, recombinant human ADAM10, selectivity assay for ADAM17 exosite inhibitor project, dose response (AID 743259);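 note: ADAM10 enzyme cleaving a FRET peptide substrate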
# [19] = Counterscreen for […] of the human trace amine associated receptor 1 (TAAR1): Fluorescence-based cell-based high throughput dose response assay to identify nonselective Ga16 agonists.; assay type: functional
# [20] = target: T3, Trace amine-associated receptor 1; assay: Fluorescence-based cell-based high throughput dose response assay to identify antagonists of the human trace amine associated receptor 1 (TAAR1).; assay type: functional
# [21] = Counterscreen for antagonists of the human trace amine associated receptor 1 (hTAAR1): Fluorescence-based cell-based high throughput dose response assay to identify nonselective Ga16 antagonists.; assay type: functional
# [22] = target: T3, Trace amine-associated receptor 1; assay: Counterscreen for antagonists of the human trace amine associated receptor 1 (hTAAR1): Fluorescence-based cell-based high throughput dose response assay to identify TAAR1 Agonists.; assay type: functional
# [23] = A549 lung cell viability reduction – CellTiter-Glo luminescence, cherry-pick, cytotoxicity control, dose response (AID 743484); assay type: functional, cell-based
# [24] = target: Fructose-bisphosphate aldolase (Mycobacterium tuberculosis, UniProt P9WQA3); assay: Fluorescence-based biochemical high throughput dose response assay for inhibitors of the fructose-bisphosphate aldolase (FBA) of M. tuberculosis.; assay type: functional
# HeLa = assay: viability loss in HeLa cells – cell-based, ATP luminescence, cherry-pick samples, cytotoxicity control, dose response (AID 687004); assay type: functional; conditions: Homo sapiens
# HEK293 = assay: viability loss in HEK293T cells – cell-based, ATP luminescence, cherry-pick samples, cytotoxicity control, dose response (AID 687005); assay type: functional; conditions: Homo sapiens;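 note: cells exposed to compound for 48 hours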
# [25] = HEK293 Cytotoxicity Assay Measured in Cell-Based System Using Plate Reader - 7071-01_Inhibitor_Dose_CherryPick_Activity_Set2.; assay type: functional
# A549 = assay: viability loss in A549 cells – cell-based, plate reader, cherry-pick samples, cytotoxicity control, dose response (AID 687028); assay type: functional; conditions: Homo sapiens
# [26] = human cervical cancer cell viability loss – 24 h, plate reader, dry powder, cytotoxicity control, dose response (AID 686928); assay type: functional, cell-based; conditions: HeLa
# [27] = YAP1 overexpression rescue of CTGF inhibition – DLD1 cells, RT-qPCR, cherry-pick, mechanism study for YAP1 pathway inhibitor project, dose response (AID 1053127); assay type: functional, cell-based; conditions: DLD-1
# [28] = A549 cell cytotoxicity, dose response, cytotoxicity control, plate reader, cherry-pick, antagonist series (AID 743412); assay type: functional, cell-based
# [29] = blockers of bursicon-stimulated LGR2 cAMP reporter – cell-based, HEK293, CRE-luciferase reporter, cherry pick, set 2, dose response (AID 743343); assay type: functional;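 note: transfected cells were stimulated with diluted bursicon conditioned medium after compound addition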
# [30] = viability loss in HepG2 hepatoma cells – cell-based, cherry-picks, set 5, cytotoxicity control, dose response (AID 1053118); assay type: functional
# [31] = viability loss in HEK293 kidney cells – cell-based, cherry-picks, set 5, cytotoxicity control, dose response (AID 1053117); assay type: functional
# [32] = viability loss in A549 lung cancer cells – cell-based, cherry-picks, […], cytotoxicity control, dose response (AID 1053119); assay type: functional
# [33] = blockade of melanocortin 4 receptor signaling – cell-based, plate reader, cherry pick, counter-screen for LGR2 antagonist project, dose response (AID 743444); assay type: functional;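 note: transfected HEK 293 cells stimulated with alpha-MSH peptide; potency of inhibitors of the alpha-MSH evoked signal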
# [34] = blockers of FN fibrillogenesis by fibroblasts – AH1F cells, Alexa488-FN fluorescence, cherry-picks, dose response (AID 1035475); assay type: functional, cell-based
# [35] = viability loss in HEK293 cells – cell-based, plate reader, cherry-picked samples, cytotoxicity control, dose response (AID 743446); assay type: functional
# Sequence of fMet-Leu-Phe receptor (P21462 whole entry): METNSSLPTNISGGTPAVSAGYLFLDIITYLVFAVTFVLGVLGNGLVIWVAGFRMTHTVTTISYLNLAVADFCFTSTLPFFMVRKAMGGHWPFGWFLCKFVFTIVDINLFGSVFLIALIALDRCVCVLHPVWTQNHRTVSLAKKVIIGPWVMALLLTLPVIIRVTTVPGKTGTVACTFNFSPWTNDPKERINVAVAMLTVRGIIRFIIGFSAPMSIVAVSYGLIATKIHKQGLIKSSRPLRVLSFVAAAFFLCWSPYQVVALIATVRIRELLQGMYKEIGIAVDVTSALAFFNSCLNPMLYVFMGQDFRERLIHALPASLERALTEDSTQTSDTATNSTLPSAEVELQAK
# Sequence of Kallikrein-7 (P49862 whole entry): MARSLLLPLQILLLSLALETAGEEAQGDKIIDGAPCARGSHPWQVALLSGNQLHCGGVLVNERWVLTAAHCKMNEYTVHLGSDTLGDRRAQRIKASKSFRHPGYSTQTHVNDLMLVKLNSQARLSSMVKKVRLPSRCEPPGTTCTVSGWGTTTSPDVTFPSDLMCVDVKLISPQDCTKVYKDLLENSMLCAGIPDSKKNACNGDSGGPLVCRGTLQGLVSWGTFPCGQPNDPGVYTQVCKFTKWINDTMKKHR
# Sequence of Fructose-bisphosphate aldolase (P9WQA3 whole entry): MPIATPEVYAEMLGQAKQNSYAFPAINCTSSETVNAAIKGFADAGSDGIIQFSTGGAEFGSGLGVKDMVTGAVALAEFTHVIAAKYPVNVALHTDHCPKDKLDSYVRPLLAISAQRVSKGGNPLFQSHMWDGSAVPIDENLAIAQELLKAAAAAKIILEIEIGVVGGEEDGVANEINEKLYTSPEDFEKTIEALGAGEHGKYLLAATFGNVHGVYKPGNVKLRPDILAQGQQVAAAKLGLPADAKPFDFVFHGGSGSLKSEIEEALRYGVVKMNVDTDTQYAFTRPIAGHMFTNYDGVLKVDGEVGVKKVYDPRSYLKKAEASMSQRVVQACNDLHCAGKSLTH
# Sequence of Photoreceptor-specific nuclear receptor (Q9Y5X4 whole entry, the tested form may be a part): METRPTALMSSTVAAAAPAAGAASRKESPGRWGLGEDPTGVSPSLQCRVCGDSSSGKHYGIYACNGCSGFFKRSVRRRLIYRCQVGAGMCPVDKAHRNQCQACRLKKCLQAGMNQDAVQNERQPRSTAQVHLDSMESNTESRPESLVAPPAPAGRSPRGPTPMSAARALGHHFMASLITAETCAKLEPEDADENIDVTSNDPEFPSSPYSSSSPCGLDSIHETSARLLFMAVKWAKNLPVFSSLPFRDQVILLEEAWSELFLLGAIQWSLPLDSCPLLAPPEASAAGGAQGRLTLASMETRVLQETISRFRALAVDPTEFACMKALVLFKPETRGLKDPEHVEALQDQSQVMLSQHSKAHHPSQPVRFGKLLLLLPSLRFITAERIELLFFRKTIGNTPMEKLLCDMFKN
# Sequence of NAD-dependent protein deacylase sirtuin-5, mitochondrial (Q9NXA8 whole entry): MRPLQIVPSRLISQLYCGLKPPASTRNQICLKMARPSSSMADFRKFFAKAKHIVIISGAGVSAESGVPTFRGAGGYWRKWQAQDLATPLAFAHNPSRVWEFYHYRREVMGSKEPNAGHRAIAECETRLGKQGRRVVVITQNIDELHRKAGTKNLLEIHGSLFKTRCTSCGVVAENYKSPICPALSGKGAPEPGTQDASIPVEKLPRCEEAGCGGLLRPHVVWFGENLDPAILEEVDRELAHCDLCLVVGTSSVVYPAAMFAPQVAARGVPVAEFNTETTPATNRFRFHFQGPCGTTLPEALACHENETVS
# Sequence of SWI/SNF-related matrix-associated actin-dependent regulator of chromatin subfamily A member 2 (P51531 whole entry): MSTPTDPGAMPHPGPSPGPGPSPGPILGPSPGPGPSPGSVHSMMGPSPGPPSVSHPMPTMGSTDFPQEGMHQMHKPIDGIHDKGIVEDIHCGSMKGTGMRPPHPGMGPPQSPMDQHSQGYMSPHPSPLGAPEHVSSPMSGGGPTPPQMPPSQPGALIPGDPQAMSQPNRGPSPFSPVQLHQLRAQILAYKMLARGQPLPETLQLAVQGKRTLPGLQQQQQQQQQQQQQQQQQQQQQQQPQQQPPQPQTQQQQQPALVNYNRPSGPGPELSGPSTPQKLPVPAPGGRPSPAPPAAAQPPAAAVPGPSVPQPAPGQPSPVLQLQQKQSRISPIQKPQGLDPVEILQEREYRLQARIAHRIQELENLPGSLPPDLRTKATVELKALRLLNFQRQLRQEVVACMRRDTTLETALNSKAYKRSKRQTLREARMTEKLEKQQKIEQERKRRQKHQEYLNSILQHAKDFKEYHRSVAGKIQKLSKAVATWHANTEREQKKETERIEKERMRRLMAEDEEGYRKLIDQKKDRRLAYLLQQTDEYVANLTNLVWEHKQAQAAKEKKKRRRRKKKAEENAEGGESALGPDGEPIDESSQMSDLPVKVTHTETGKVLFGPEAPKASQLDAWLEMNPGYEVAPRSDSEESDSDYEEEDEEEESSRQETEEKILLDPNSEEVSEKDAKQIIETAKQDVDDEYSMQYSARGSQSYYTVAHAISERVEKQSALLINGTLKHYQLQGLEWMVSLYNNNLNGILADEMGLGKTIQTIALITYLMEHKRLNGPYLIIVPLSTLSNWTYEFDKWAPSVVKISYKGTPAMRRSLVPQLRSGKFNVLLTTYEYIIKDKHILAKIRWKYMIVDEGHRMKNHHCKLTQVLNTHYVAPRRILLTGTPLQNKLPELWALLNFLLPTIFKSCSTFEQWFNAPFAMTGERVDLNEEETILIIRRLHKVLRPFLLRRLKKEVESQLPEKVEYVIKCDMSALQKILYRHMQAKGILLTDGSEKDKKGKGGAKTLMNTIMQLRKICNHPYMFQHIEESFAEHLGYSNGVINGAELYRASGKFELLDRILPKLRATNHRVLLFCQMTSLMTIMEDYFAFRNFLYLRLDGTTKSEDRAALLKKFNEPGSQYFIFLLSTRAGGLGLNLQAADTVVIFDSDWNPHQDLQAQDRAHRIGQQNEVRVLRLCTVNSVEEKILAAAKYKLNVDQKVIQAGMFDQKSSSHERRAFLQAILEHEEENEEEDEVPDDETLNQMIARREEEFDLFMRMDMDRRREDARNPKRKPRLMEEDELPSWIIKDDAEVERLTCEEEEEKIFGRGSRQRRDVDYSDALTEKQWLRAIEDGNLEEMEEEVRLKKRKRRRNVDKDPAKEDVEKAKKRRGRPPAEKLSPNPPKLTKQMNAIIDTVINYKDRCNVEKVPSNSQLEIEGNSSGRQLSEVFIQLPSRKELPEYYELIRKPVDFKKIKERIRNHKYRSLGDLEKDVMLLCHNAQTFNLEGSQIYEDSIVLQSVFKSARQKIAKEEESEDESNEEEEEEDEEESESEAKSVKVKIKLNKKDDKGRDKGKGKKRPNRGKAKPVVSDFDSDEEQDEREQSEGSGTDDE
# Sequence of Cytochrome P450 3A4 (P08684 whole entry): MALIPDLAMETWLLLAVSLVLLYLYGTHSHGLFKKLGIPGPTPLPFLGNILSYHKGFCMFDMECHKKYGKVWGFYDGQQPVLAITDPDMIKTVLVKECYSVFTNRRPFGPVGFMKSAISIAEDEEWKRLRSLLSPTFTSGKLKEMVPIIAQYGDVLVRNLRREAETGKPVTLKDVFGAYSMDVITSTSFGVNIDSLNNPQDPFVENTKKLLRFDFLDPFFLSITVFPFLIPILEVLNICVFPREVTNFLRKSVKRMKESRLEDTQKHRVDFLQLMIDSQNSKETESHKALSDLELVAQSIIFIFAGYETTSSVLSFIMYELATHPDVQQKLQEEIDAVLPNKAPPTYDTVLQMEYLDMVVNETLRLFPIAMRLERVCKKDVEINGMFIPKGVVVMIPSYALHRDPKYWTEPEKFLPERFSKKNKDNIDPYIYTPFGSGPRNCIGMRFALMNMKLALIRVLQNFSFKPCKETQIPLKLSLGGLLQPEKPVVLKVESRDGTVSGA
# Sequence of Disintegrin and metalloproteinase domain-containing protein 17 (P78536 whole entry, the tested form may be a part): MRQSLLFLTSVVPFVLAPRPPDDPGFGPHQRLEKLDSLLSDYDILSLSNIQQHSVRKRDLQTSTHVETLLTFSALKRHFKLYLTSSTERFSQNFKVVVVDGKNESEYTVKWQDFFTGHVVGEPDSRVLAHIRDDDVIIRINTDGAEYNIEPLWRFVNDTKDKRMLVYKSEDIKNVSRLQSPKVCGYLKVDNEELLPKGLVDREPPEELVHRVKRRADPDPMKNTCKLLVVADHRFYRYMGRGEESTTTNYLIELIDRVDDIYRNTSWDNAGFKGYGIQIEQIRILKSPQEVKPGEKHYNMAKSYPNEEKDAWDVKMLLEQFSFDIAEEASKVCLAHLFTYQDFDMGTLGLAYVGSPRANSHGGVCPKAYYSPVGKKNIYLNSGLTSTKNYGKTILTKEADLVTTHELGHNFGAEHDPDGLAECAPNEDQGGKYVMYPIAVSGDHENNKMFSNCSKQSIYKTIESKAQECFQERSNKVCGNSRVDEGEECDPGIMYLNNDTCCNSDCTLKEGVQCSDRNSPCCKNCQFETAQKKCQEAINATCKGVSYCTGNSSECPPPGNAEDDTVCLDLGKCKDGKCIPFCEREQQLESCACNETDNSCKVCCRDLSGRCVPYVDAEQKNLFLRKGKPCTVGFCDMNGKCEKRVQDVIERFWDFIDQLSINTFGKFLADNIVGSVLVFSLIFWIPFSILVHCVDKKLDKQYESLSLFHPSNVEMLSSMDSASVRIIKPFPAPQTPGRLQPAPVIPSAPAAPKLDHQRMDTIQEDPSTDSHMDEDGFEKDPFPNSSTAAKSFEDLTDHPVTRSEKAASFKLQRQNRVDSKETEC
compound,measurement,setting,value
Cc1cc(NC(=O)CSc2nc3c(sc4ccccc43)c(=O)n2CCCN2CCOCC2)[nH]n1,EC50,[1],100 µM (active)
same,EC50,[2],285 µM (active)
same,IC50,[3],> 80 µM (inactive)
same,EC50,[4],37.9 µM (active)
same,IC50,[5],0.783 µM (active)
same,EC50,[6],> 91.2 µM (inactive)
same,AC50,[7],> 52 µM (inactive)
same,EC50,[8],> 91.2 µM (inactive)
COC(=O)c1[nH]c(C)c(C(=O)C2=C(O)C(=O)N(CCN3CCOCC3)C2c2cccs2)c1C (stereo unspecified),Ki,fMet-Leu-Phe receptor,5 µM (active)
COc1ccc(-c2coc3c(CN4CCCCC4C)c(O)ccc3c2=O)cc1 (stereo unspecified),EC50,Kallikrein-7,> 2.58 µM (active)
same,EC50,[9],> 2.58 µM (active)
CCc1ccc(N(C(=O)c2csnn2)C(C(=O)NCc2ccccc2)c2ccco2)cc1 (stereo unspecified),AC50,[10],> 30 µM (inactive)
same,AC50,Cytochrome P450 3A4,1.41 µM (inconclusive)
OC(CNC1CCCc2ccccc21)COc1c(Cl)cccc1Cl (stereo unspecified),EC50,[11],1.33 µM (active)
same,EC50,[12],5.96 µM (active)
same,IC50,cells [13],13.9 µM (inactive)
same,EC50,[14],1.57 µM (active)
same,IC50,[15],8.84 µM (active)
same,EC50,cells [16],11.7 µM (inactive)
Cc1cc(Nc2ccc(Cl)cc2)n(-c2cccc(Cl)c2)n1,IC50,[17],> 69.5 µM (inactive)
same,IC50,[18],21.3 µM (inactive)
Cc1ccc(CSCC(=O)Nc2cc(S(=O)(=O)N3CCOCC3)ccc2OCC(F)(F)F)cc1,EC50,[19],> 29.9 µM (inactive)
same,IC50,[20],1.25 µM (active)
same,IC50,[21],> 29.9 µM (inactive)
same,EC50,[22],> 29.9 µM (inactive)
CC1(Cc2ccccc2C#N)C(=O)Nc2cc(-c3ccccc3Cl)ccc21 (stereo unspecified),AC50,[23],> 52 µM (inactive)
COc1cccc(/C=C/c2nc(S(=O)(=O)c3ccccc3)c(N3CCC(C(N)=O)CC3)o2)c1,IC50,[24],0.676 µM (active)
C[C@@H]1CN([C@@H](C)CO)S(=O)(=O)c2ccc(C#Cc3ccccn3)cc2O[C@H]1CN(C)Cc1ccccc1,AC50,HeLa,39.1 µM (active)
same,AC50,HEK293,7.04 µM (active)
same,AC50,[25],7.04 µM (active)
C[C@H](CO)N1C[C@H](C)[C@H](CN(C)C(=O)Nc2ccc(C(F)(F)F)cc2)OCCCC[C@H](C)Oc2ccc(NS(=O)(=O)c3ccc(F)cc3)cc2C1=O,AC50,A549,33.6 µM (active)
Cc1ccc(-n2cnc(=O)c3ccccc32)cc1Cl,AC50,[26],> 160 µM (inactive)
COc1ccccc1C(=O)Nc1ccc2c(c1)C(=O)N(C)C[C@H](OC)[C@@H](C)CN(C(C)=O)[C@@H](C)CO2,AC50,[27],8.95 µM (active)
C[C@@H]1CN([C@@H](C)CO)C(=O)c2cccc(NC(=O)Nc3ccc(C(F)(F)F)cc3)c2O[C@@H]1CN(C)C(=O)Nc1cccc2ccccc12,AC50,[28],27.8 µM (active)
same,AC50,[29],25 µM (active)
same,AC50,[30],10.2 µM (active)
same,AC50,[31],12.7 µM (active)
same,AC50,[32],12.8 µM (active)
same,AC50,[33],22.8 µM (active)
same,AC50,[34],12.9 µM (active)
same,AC50,[35],> 52 µM (inactive)
